Data: PubChem BioAssay (NCI)
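These data come from cells grown in 96-well plates and exposed to compound for 48 hours at five concentrations. The concentration for full growth arrest is given as TGI.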

Legend:
Test in all cases: DTP human tumour cell line panel, 48 h
786-0 renal = system: 786-0 renal
A498 renal = system: A498 renal
A549 NSCLC = system: A549 NSCLC
ACHN renal = system: ACHN renal
BT-549 breast = system: BT-549 breast
CAKI-1 renal = system: CAKI-1 renal
COLO 205 colon = system: COLO 205 colon
DU-145 prostate = system: DU-145 prostate
EKVX NSCLC = system: EKVX NSCLC
HCC-2998 colon = system: HCC-2998 colon
HCT-116 colon = system: HCT-116 colon
HCT-15 colon = system: HCT-15 colon
HL-60(TB) leukemia = system: HL-60(TB) leukemia
HOP-62 NSCLC = system: HOP-62 NSCLC
HOP-92 NSCLC = system: HOP-92 NSCLC
HS 578T breast = system: HS 578T breast
HT29 colon = system: HT29 colon
IGROV1 ovarian = system: IGROV1 ovarian
K-562 leukemia = system: K-562 leukemia
KM12 colon = system: KM12 colon
LOX IMVI melanoma = system: LOX IMVI melanoma
M14 melanoma = system: M14 melanoma
MCF7 breast = system: MCF7 breast
MDA-MB-231 breast = system: MDA-MB-231 breast
MDA-MB-435 = system: MDA-MB-435
MDA-N = system: MDA-N
MOLT-4 leukemia = system: MOLT-4 leukemia
NCI-H226 lung = system: NCI-H226 lung
NCI-H23 lung = system: NCI-H23 lung
NCI-H460 lung = system: NCI-H460 lung
NCI-H522 lung = system: NCI-H522 lung
NCI/ADR-RES ovarian = system: NCI/ADR-RES ovarian
OVCAR-3 ovarian = system: OVCAR-3 ovarian
OVCAR-4 ovarian = system: OVCAR-4 ovarian
OVCAR-5 ovarian = system: OVCAR-5 ovarian
OVCAR-8 ovarian = system: OVCAR-8 ovarian
PC-3 prostate = system: PC-3 prostate
RPMI-8226 leukemia = system: RPMI-8226 leukemia
RXF 393 renal = system: RXF 393 renal
SF-268 CNS = system: SF-268 CNS
SF-295 CNS = system: SF-295 CNS
SF-539 CNS = system: SF-539 CNS
SK-MEL-2 melanoma = system: SK-MEL-2 melanoma
SK-MEL-28 melanoma = system: SK-MEL-28 melanoma
SK-MEL-5 melanoma = system: SK-MEL-5 melanoma
SK-OV-3 ovarian = system: SK-OV-3 ovarian
SN12C renal = system: SN12C renal
SNB-19 CNS = system: SNB-19 CNS
SNB-75 CNS = system: SNB-75 CNS
SR leukemia = system: SR leukemia
SW-620 colon = system: SW-620 colon
T-47D breast = system: T-47D breast
TK-10 renal = system: TK-10 renal
U251 CNS = system: U251 CNS
UACC-257 melanoma = system: UACC-257 melanoma
UACC-62 melanoma = system: UACC-62 melanoma
UO-31 renal = system: UO-31 renal
CCRF-CEM leukemia = system: CCRF-CEM leukemia
MALME-3M melanoma = system: MALME-3M melanoma

## CN1CCN(CCCNN)CC1
786-0 renal
  TGI: > 100 µM
A498 renal
  TGI: > 100 µM
A549 NSCLC
  TGI: > 100 µM
ACHN renal
  TGI: > 100 µM
BT-549 breast
  TGI: > 100 µM
CAKI-1 renal
  TGI: > 100 µM
COLO 205 colon
  TGI: > 100 µM
DU-145 prostate
  TGI: > 100 µM
EKVX NSCLC
  TGI: > 100 µM
HCC-2998 colon
  TGI: > 100 µM
HCT-116 colon
  TGI: > 100 µM
HCT-15 colon
  TGI: > 100 µM
HL-60(TB) leukemia
  TGI: > 100 µM
HOP-62 NSCLC
  TGI: > 100 µM
HOP-92 NSCLC
  TGI: > 100 µM
HS 578T breast
  TGI: > 100 µM
HT29 colon
  TGI: > 100 µM
IGROV1 ovarian
  TGI: > 100 µM
K-562 leukemia
  TGI: 37.5 µM
KM12 colon
  TGI: > 100 µM
LOX IMVI melanoma
  TGI: > 100 µM
M14 melanoma
  TGI: > 100 µM
MCF7 breast
  TGI: > 100 µM
MDA-MB-231 breast
  TGI: > 100 µM
MDA-MB-435
  TGI: > 100 µM
MDA-N
  TGI: > 100 µM
MOLT-4 leukemia
  TGI: 1.44 µM
NCI-H226 lung
  TGI: > 100 µM
NCI-H23 lung
  TGI: > 100 µM
NCI-H460 lung
  TGI: > 100 µM
NCI-H522 lung
  TGI: > 100 µM
NCI/ADR-RES ovarian
  TGI: > 100 µM
OVCAR-3 ovarian
  TGI: > 100 µM
OVCAR-4 ovarian
  TGI: > 100 µM
OVCAR-5 ovarian
  TGI: > 100 µM
OVCAR-8 ovarian
  TGI: > 100 µM
PC-3 prostate
  TGI: > 100 µM
RPMI-8226 leukemia
  TGI: > 100 µM
RXF 393 renal
  TGI: > 100 µM
SF-268 CNS
  TGI: > 100 µM
SF-295 CNS
  TGI: > 100 µM
SF-539 CNS
  TGI: > 100 µM
SK-MEL-2 melanoma
  TGI: > 100 µM
SK-MEL-28 melanoma
  TGI: > 100 µM
SK-MEL-5 melanoma
  TGI: > 100 µM
SK-OV-3 ovarian
  TGI: > 100 µM
SN12C renal
  TGI: > 100 µM
SNB-19 CNS
  TGI: > 100 µM
SNB-75 CNS
  TGI: > 100 µM
SR leukemia
  TGI: > 100 µM
SW-620 colon
  TGI: > 100 µM
T-47D breast
  TGI: > 100 µM
TK-10 renal
  TGI: > 100 µM
U251 CNS
  TGI: > 100 µM
UACC-257 melanoma
  TGI: > 100 µM
UACC-62 melanoma
  TGI: > 100 µM
UO-31 renal
  TGI: > 100 µM

## C#CCCOC(=O)CC1=C(C)/C(=C/c2ccc(S(C)=O)cc2)c2ccc(F)cc21 (stereo not given)
786-0 renal
  TGI: 44.7 µM
A498 renal
  TGI: 30.4 µM
ACHN renal
  TGI: 44.3 µM
BT-549 breast
  TGI: 30.5 µM
CAKI-1 renal
  TGI: 65.4 µM
CCRF-CEM leukemia
  TGI: 35 µM
COLO 205 colon
  TGI: 32.9 µM
DU-145 prostate
  TGI: 31.4 µM
EKVX NSCLC
  TGI: 71.9 µM
HCC-2998 colon
  TGI: 22.3 µM
HCT-116 colon
  TGI: 32.3 µM
HCT-15 colon
  TGI: 27.1 µM
HL-60(TB) leukemia
  TGI: 20.7 µM
HOP-62 NSCLC
  TGI: > 100 µM
HOP-92 NSCLC
  TGI: 26.1 µM
HS 578T breast
  TGI: 40.4 µM
IGROV1 ovarian
  TGI: 83.1 µM
K-562 leukemia
  TGI: 35.3 µM
KM12 colon
  TGI: 27.3 µM
LOX IMVI melanoma
  TGI: 33.1 µM
M14 melanoma
  TGI: 33.1 µM
MCF7 breast
  TGI: 37.8 µM
MDA-MB-231 breast
  TGI: 26 µM
MDA-MB-435
  TGI: 17.4 µM
MDA-N
  TGI: 21 µM
MOLT-4 leukemia
  TGI: 44.1 µM
NCI-H226 lung
  TGI: 43.3 µM
NCI-H23 lung
  TGI: 68.9 µM
NCI-H460 lung
  TGI: 35.4 µM
NCI-H522 lung
  TGI: 47 µM
NCI/ADR-RES ovarian
  TGI: 36 µM
OVCAR-3 ovarian
  TGI: 33.8 µM
OVCAR-4 ovarian
  TGI: 43 µM
OVCAR-5 ovarian
  TGI: > 100 µM
OVCAR-8 ovarian
  TGI: 42.8 µM
PC-3 prostate
  TGI: 28.7 µM
RPMI-8226 leukemia
  TGI: 32.4 µM
RXF 393 renal
  TGI: 84.7 µM
SF-268 CNS
  TGI: 50 µM
SF-295 CNS
  TGI: 29.4 µM
SF-539 CNS
  TGI: 30.5 µM
SK-MEL-2 melanoma
  TGI: 30.5 µM
SK-MEL-5 melanoma
  TGI: 24.7 µM
SK-OV-3 ovarian
  TGI: 84.3 µM
SN12C renal
  TGI: 35.6 µM
SNB-19 CNS
  TGI: 29.6 µM
SNB-75 CNS
  TGI: 44.8 µM
SR leukemia
  TGI: 22.1 µM
SW-620 colon
  TGI: 29.9 µM
T-47D breast
  TGI: 53.7 µM
TK-10 renal
  TGI: 83.3 µM
U251 CNS
  TGI: 29.4 µM
UACC-257 melanoma
  TGI: 29.7 µM
UACC-62 melanoma
  TGI: 27.4 µM
UO-31 renal
  TGI: 33.6 µM

## C=CCOC1=C(OC(C)=O)C(=O)OC1C1COC(C)(C)O1 (stereo not given)
786-0 renal
  TGI: > 60.7 µM
A498 renal
  TGI: > 100 µM
A549 NSCLC
  TGI: > 100 µM
ACHN renal
  TGI: 46.6 µM
BT-549 breast
  TGI: > 88.2 µM
CAKI-1 renal
  TGI: > 57.1 µM
CCRF-CEM leukemia
  TGI: > 60.4 µM
COLO 205 colon
  TGI: > 58.9 µM
DU-145 prostate
  TGI: > 100 µM
EKVX NSCLC
  TGI: > 68 µM
HCC-2998 colon
  TGI: > 100 µM
HCT-116 colon
  TGI: > 65.2 µM
HCT-15 colon
  TGI: 46.2 µM
HL-60(TB) leukemia
  TGI: > 60.8 µM
HOP-62 NSCLC
  TGI: > 100 µM
HS 578T breast
  TGI: > 100 µM
HT29 colon
  TGI: > 83.2 µM
IGROV1 ovarian
  TGI: > 100 µM
K-562 leukemia
  TGI: > 56.5 µM
KM12 colon
  TGI: > 65.6 µM
LOX IMVI melanoma
  TGI: 33.2 µM
M14 melanoma
  TGI: > 80.7 µM
MALME-3M melanoma
  TGI: 57.1 µM
MCF7 breast
  TGI: > 66.4 µM
MDA-MB-231 breast
  TGI: > 100 µM
MDA-MB-435
  TGI: > 74 µM
MDA-N
  TGI: > 100 µM
MOLT-4 leukemia
  TGI: 45.7 µM
NCI-H226 lung
  TGI: > 100 µM
NCI-H23 lung
  TGI: > 83.2 µM
NCI-H460 lung
  TGI: > 100 µM
NCI-H522 lung
  TGI: 34.6 µM
NCI/ADR-RES ovarian
  TGI: > 100 µM
OVCAR-3 ovarian
  TGI: 31.4 µM
OVCAR-4 ovarian
  TGI: 32.1 µM
OVCAR-5 ovarian
  TGI: > 100 µM
OVCAR-8 ovarian
  TGI: > 84.6 µM
PC-3 prostate
  TGI: > 100 µM
RPMI-8226 leukemia
  TGI: > 100 µM
RXF 393 renal
  TGI: > 56.5 µM
SF-268 CNS
  TGI: > 100 µM
SF-295 CNS
  TGI: > 100 µM
SF-539 CNS
  TGI: > 74.8 µM
SK-MEL-2 melanoma
  TGI: 98.9 µM
SK-MEL-28 melanoma
  TGI: 31.9 µM
SK-MEL-5 melanoma
  TGI: > 100 µM
SK-OV-3 ovarian
  TGI: > 100 µM
SN12C renal
  TGI: > 68.7 µM
SNB-19 CNS
  TGI: > 100 µM
SNB-75 CNS
  TGI: > 71.3 µM
SR leukemia
  TGI: 9.02 µM
SW-620 colon
  TGI: > 59.7 µM
T-47D breast
  TGI: > 63.7 µM
TK-10 renal
  TGI: > 100 µM
U251 CNS
  TGI: > 100 µM
UACC-257 melanoma
  TGI: > 100 µM
UACC-62 melanoma
  TGI: > 100 µM
UO-31 renal
  TGI: > 79.4 µM
